In ChEMBL document CHEMBL1149262, “Monoamine transporter binding, locomotor activity, and drug discrimination properties of 3-(4-substituted-phenyl)tropane-2-carboxylic acid methyl ester isomers” (J Med Chem, 2004):
Calls of active or inactive are those of the source. The calls are words filed in the database; no cut-off is given here.

Key:
Rattus norvegicus [1] = test: Cocaine discrimination in ip dosed CD Albino rat; assay type: functional
Rattus norvegicus [2] = test: Drug discrimination effect in CD Albino rat assessed as percent of rat choosing cocaine lever at 1 mg/kg, ip; assay type: functional; details: route intraperitoneal
Rattus norvegicus [3] = test: Drug discrimination effect in CD Albino rat assessed as percent of rat choosing cocaine lever at 1.7 mg/kg, ip; assay type: functional; details: route intraperitoneal
Rattus norvegicus [4] = test: Drug discrimination effect in CD Albino rat assessed as percent of rat choosing cocaine lever at 3 mg/kg, ip; assay type: functional; details: route intraperitoneal
Rattus norvegicus [5] = test: Drug discrimination effect in CD Albino rat assessed as percent of rat choosing cocaine lever at 5.6 mg/kg, ip; assay type: functional; details: route intraperitoneal
Rattus norvegicus [6] = test: Drug discrimination effect in CD Albino rat assessed as percent of rat choosing cocaine lever at 10 mg/kg, ip; assay type: functional; details: route intraperitoneal
Mus musculus [7] = test: Activity in CD1 mouse assessed as slight or intermittent hyperactivity at 100 mg/kg, ip after 4 hrs; assay type: functional, organism-based; design: dose 100 mg/kg
[8] = target: Sodium-dependent dopamine transporter (Homo sapiens, UniProt Q01959); test: Displacement of [3H]WIN-35428 from DAT
Sodium-dependent dopamine transporter, sequence (Q01959 whole entry): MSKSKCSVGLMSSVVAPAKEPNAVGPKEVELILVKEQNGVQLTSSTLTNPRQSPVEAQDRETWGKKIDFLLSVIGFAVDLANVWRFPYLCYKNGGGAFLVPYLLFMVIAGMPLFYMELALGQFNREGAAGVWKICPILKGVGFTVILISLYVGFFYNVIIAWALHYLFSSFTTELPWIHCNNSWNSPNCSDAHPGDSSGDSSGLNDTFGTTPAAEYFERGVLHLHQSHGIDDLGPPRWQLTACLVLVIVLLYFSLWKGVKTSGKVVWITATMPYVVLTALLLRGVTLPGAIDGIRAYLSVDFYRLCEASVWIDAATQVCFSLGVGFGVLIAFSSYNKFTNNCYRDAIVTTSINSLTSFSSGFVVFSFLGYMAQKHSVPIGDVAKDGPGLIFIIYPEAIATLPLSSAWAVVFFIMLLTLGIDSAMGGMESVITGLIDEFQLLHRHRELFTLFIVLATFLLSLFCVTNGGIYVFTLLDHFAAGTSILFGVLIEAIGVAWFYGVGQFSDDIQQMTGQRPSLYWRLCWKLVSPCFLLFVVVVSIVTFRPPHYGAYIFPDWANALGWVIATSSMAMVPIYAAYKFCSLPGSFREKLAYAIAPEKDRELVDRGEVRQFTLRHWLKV

[9] = target: Sodium-dependent noradrenaline transporter (Homo sapiens, UniProt P23975); test: Displacement of [3H]nisoxetine from NET
Sodium-dependent noradrenaline transporter, sequence (P23975 whole entry): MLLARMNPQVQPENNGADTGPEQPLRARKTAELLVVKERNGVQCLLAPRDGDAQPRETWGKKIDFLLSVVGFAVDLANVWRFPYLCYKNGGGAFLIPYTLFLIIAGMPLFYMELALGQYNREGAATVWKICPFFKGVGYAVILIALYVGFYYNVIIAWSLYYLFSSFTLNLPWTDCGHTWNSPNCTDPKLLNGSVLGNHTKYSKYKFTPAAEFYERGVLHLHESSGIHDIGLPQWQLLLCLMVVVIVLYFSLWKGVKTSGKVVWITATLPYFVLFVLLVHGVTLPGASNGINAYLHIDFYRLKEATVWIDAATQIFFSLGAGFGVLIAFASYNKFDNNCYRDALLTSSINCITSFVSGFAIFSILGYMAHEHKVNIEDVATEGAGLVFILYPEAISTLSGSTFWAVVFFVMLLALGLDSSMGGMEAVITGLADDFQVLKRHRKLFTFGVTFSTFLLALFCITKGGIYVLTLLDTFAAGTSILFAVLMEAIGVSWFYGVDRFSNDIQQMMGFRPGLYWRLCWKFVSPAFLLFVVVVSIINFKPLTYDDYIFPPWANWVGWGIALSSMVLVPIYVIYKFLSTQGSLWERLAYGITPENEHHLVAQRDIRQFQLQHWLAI

Mus musculus [10] = test: Locomotor activity in ip dosed CD1 mouse in peak hour; assay type: functional
Mus musculus [11] = test: Locomotor activity in CD1 mouse assessed as stimulation at 3 mg/kg, ip after 1 hr relative to control; assay type: functional; details: route intraperitoneal
Mus musculus [12] = test: Locomotor activity in CD1 mouse assessed as stimulation at 3 mg/kg, ip after 2 hrs relative to control; assay type: functional; details: route intraperitoneal
Mus musculus [13] = test: Locomotor activity in CD1 mouse assessed as stimulation at 3 mg/kg, ip after 3 hrs relative to control; assay type: functional; details: route intraperitoneal
Mus musculus [14] = test: Locomotor activity in CD1 mouse assessed as stimulation at 3 mg/kg, ip after 4 hrs relative to control; assay type: functional; details: route intraperitoneal
Mus musculus [15] = test: Locomotor activity in CD1 mouse assessed as stimulation at 10 mg/kg, ip after 1 hr relative to control; assay type: functional; details: route intraperitoneal
Mus musculus [16] = test: Locomotor activity in CD1 mouse assessed as stimulation at 10 mg/kg, ip after 2 hrs relative to control; assay type: functional; details: route intraperitoneal
Mus musculus [17] = test: Locomotor activity in CD1 mouse assessed as stimulation at 10 mg/kg, ip after 3 hrs relative to control; assay type: functional; details: route intraperitoneal
Mus musculus [18] = test: Locomotor activity in CD1 mouse assessed as stimulation at 10 mg/kg, ip after 4 hrs relative to control; assay type: functional; details: route intraperitoneal
Mus musculus [19] = test: Locomotor activity in CD1 mouse assessed as stimulation at 30 mg/kg, ip after 1 hr relative to control; assay type: functional; details: route intraperitoneal
Mus musculus [20] = test: Locomotor activity in CD1 mouse assessed as stimulation at 30 mg/kg, ip after 2 hrs relative to control; assay type: functional; details: route intraperitoneal
Mus musculus [21] = test: Locomotor activity in CD1 mouse assessed as stimulation at 30 mg/kg, ip after 3 hrs relative to control; assay type: functional; details: route intraperitoneal
Mus musculus [22] = test: Locomotor activity in CD1 mouse assessed as stimulation at 30 mg/kg, ip after 4 hrs relative to control; assay type: functional; details: route intraperitoneal
Mus musculus [23] = test: Locomotor activity in CD1 mouse assessed as stimulation at 100 mg/kg, ip after 1 hr relative to control; assay type: functional; details: route intraperitoneal
Mus musculus [24] = test: Locomotor activity in CD1 mouse assessed as stimulation at 100 mg/kg, ip after 2 hrs relative to control; assay type: functional; details: route intraperitoneal
Mus musculus [25] = test: Locomotor activity in CD1 mouse assessed as stimulation at 100 mg/kg, ip after 3 hrs relative to control; assay type: functional; details: route intraperitoneal
Mus musculus [26] = test: Locomotor activity in CD1 mouse assessed as stimulation at 100 mg/kg, ip after 4 hrs relative to control; assay type: functional; details: route intraperitoneal
Mus musculus [27] = test: Locomotor activity in ip dosed CD1 mouse after 1 hr relative to cocaine; assay type: functional
[28] = target: Sodium-dependent serotonin transporter (Homo sapiens, UniProt P31645)
Sodium-dependent serotonin transporter, sequence (P31645 whole entry): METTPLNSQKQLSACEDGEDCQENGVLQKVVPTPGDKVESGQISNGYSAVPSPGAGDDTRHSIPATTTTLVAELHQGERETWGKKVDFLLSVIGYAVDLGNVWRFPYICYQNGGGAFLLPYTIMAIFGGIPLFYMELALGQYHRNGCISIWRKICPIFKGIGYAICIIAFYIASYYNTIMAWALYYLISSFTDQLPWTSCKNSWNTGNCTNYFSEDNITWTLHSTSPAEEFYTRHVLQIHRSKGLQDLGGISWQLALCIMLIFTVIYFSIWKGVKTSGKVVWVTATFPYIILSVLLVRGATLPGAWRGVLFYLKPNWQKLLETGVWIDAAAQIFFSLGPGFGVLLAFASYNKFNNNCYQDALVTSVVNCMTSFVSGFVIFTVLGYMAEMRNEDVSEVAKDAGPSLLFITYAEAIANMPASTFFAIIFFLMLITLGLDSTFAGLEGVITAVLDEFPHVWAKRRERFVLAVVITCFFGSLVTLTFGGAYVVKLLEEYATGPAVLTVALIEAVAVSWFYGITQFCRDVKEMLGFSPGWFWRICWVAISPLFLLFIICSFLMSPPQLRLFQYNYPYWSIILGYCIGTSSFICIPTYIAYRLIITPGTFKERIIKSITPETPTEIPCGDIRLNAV
Description: Displacement of [3H]paroxetine from 5HTT

Mus musculus [29] = test: Activity in CD1 mouse assessed as hyperactivity at 10 mg/kg, ip after 4 hrs; assay type: functional, organism-based; design: dose 10 mg/kg
Mus musculus [30] = test: Activity in CD1 mouse assessed as stereotypy at 100 mg/kg, ip after 4 hrs; assay type: functional, organism-based; design: dose 100 mg/kg
Mus musculus [31] = test: Activity in CD1 mouse assessed as circling at 100 mg/kg, ip after 4 hrs; assay type: functional, organism-based; design: dose 100 mg/kg
Mus musculus [32] = test: Activity in CD1 mouse assessed as stimulation at 100 mg/kg, ip after 4 hrs; assay type: functional, organism-based; design: dose 100 mg/kg
Mus musculus [33] = test: Locomotor activity in CD1 mouse assessed as stimulation at 1 mg/kg, ip after 1 hr relative to control; assay type: functional; details: route intraperitoneal
Mus musculus [34] = test: Locomotor activity in CD1 mouse assessed as stimulation at 1 mg/kg, ip after 2 hrs relative to control; assay type: functional; details: route intraperitoneal
Mus musculus [35] = test: Locomotor activity in CD1 mouse assessed as stimulation at 1 mg/kg, ip after 3 hrs relative to control; assay type: functional; details: route intraperitoneal
Mus musculus [36] = test: Locomotor activity in CD1 mouse assessed as stimulation at 1 mg/kg, ip after 4 hrs relative to control; assay type: functional; details: route intraperitoneal
Rattus norvegicus [37] = test: Drug discrimination effect in CD Albino rat assessed as percent of rat choosing cocaine lever at 17 mg/kg, ip; assay type: functional; details: route intraperitoneal
Mus musculus [38] = test: Activity in CD1 mouse assessed as slight or intermittent stereotypy at 10 mg/kg, ip after 4 hrs; assay type: functional, organism-based; design: dose 10 mg/kg
Mus musculus [39] = test: Activity in CD1 mouse assessed as straub tail at 100 mg/kg, ip after 4 hrs; assay type: functional, organism-based; design: dose 100 mg/kg
Mus musculus [40] = test: Activity in CD1 mouse assessed as hind limb splay at 100 mg/kg, ip after 4 hrs; assay type: functional, organism-based; design: dose 100 mg/kg; details: Hindlimb
Mus musculus [41] = test: Activity in CD1 mouse assessed as death at 100 mg/kg, ip after 4 hrs; assay type: functional, organism-based; design: dose 100 mg/kg
Mus musculus [42] = test: Activity in CD1 mouse assessed as convulsions at 100 mg/kg, ip after 4 hrs; assay type: functional, organism-based; design: dose 100 mg/kg
Mus musculus [43] = test: Activity in CD1 mouse assessed as tremor at 100 mg/kg, ip after 4 hrs; assay type: functional, organism-based; design: dose 100 mg/kg

| SMILES | ED50 (Rattus norvegicus [1]) [mg/kg] | Activity (Rattus norvegicus [2]) [%] | Activity (Rattus norvegicus [3]) [%] | Activity (Rattus norvegicus [4]) [%] | Activity (Rattus norvegicus [5]) [%] | Activity (Rattus norvegicus [6]) [%] | IC50 [8] [nM] | ED50 (Mus musculus [10]) [mg/kg] | Activity (Mus musculus [11]) [%] | Activity (Mus musculus [12]) [%] | Activity (Mus musculus [13]) [%] | Activity (Mus musculus [14]) [%] | Activity (Mus musculus [15]) [%] | Activity (Mus musculus [16]) [%] | Activity (Mus musculus [17]) [%] | Activity (Mus musculus [18]) [%] | Activity (Mus musculus [19]) [%] | Activity (Mus musculus [20]) [%] | Activity (Mus musculus [21]) [%] | Activity (Mus musculus [22]) [%] | also measured |
| --- | --- | --- | --- | --- | --- | --- | --- | --- | --- | --- | --- | --- | --- | --- | --- | --- | --- | --- | --- | --- | --- |
| COC(=O)[C@@H]1C2CCC(C[C@H]1c1ccc(I)cc1)N2C (some centres not stated) | 4.72 | 0 | 14 | 43 | 44 | 86 | 2.9 | 7.7 | 14 | -72 | 64 | -42 | 210 | 100 | 457 | 49 | 308 | 121 | 391 | 25 | Activity (Mus musculus [7]): Active; IC50 [9]: 52.4 nM; Ki [9]: 32 nM; Activity (Mus musculus [23]): 328%; Activity (Mus musculus [24]): 168%; Activity (Mus musculus [25]): 692%; Activity (Mus musculus [26]): 124%; Ratio (Mus musculus [27]): 1; IC50 [28]: 64.9 nM; Ki [28]: 5.9 nM |
| COC(=O)[C@@H]1C2CCC(C[C@H]1c1ccc(Cl)cc1)N2C (some centres not stated) | 2.55 | 25 | 25 | 67 | 67 | 100 | 3.1 | 9.1 | 49 | 64 | 135 | 38 | 340 | 322 | 373 | 11 | 868 | 1127 | 1002 | 158 | Activity (Mus musculus [29]): Active; Activity (Mus musculus [30]): Active; Activity (Mus musculus [31]): Active; Activity (Mus musculus [32]): Active; Activity (Mus musculus [23]): 487%; Activity (Mus musculus [24]): 217%; Activity (Mus musculus [25]): 1065%; Activity (Mus musculus [26]): 598% |
| COC(=O)[C@H]1C2CCC(C[C@@H]1c1ccc(I)cc1)N2C (some centres not stated) | 13.5 | – | – | 0 | – | 14 | 22.7 | 9.9 | 19 | 17 | 96 | 13 | 17 | 49 | 85 | 40 | 7 | 150 | 268 | 255 | Activity (Mus musculus [33]): 0%; Activity (Mus musculus [34]): 44%; Activity (Mus musculus [35]): 99%; Activity (Mus musculus [36]): 41%; Activity (Rattus norvegicus [37]): 80%; Activity (Mus musculus [38]): Active; Activity (Mus musculus [30]): Active; Activity (Mus musculus [39]): Active; Activity (Mus musculus [40]): Active; Activity (Mus musculus [41]): Active; Activity (Mus musculus [42]): Active; Activity (Mus musculus [43]): Active; IC50 [9]: 760 nM; Ki [9]: 458 nM; Ratio (Mus musculus [27]): 0.1; IC50 [28]: 66.3 nM; Ki [28]: 6 nM |
